Reference: patent US8192962B2, “Processes for detecting toxic substances” (Daikin Industries, Ltd., priority 2001, dated 2012)

System: Metabolism protein genes
Assay: DNA chip mRNA expression in yeast, metabolism protein genes (Table 7)
Format: cell-based, Saccharomyces cerevisiae S288C
Summary of the method: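 Value is the scanned fluorescence intensity ratio of exposed versus chemical-free cells. Log-phase S288C yeast in YPD at 25° C. received one toxic substance for two hours, dosed to slow growth without killing; Cy3/Cy5-labeled cDNA from oligo-dT-purified mRNA was hybridized to a whole-genome chip at 65° C.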

C[S+](C)[O-] [(15), dimethylsulfoxide]
The level of expressed mRNA in the presence of chemical substance/The level of expressed mRNA in the absence of chemical substance (yeast gene YJL099W): 1.4
level of expressed mRNA in the presence/in the absence of chemical substance (yeast gene YJL121C): 1.0
level of expressed mRNA in the presence/in the absence of chemical substance (yeast gene YJL167W): 1.6
The level of expressed mRNA in the presence of chemical substance/The level of expressed mRNA in the absence of chemical substance (yeast gene YJL172W): 1.2
level of expressed mRNA in the presence/in the absence of chemical substance (yeast gene YJL216C): 1.2
level of expressed mRNA in the presence/in the absence of chemical substance (yeast gene YJR077C): 1.5
The level of expressed mRNA in the presence of chemical substance/The level of expressed mRNA in the absence of chemical substance (yeast gene YJR137C): 1.0
level of expressed mRNA in the presence/in the absence of chemical substance (yeast gene YJR143C): 1.1
The level of expressed mRNA in the presence of chemical substance/The level of expressed mRNA in the absence of chemical substance (yeast gene YKL035W): 1.0
level of expressed mRNA in the presence/in the absence of chemical substance (yeast gene YKL060C): 1.6
The level of expressed mRNA in the presence of chemical substance/The level of expressed mRNA in the absence of chemical substance (yeast gene YKL091C): 1.1
The level of expressed mRNA in the presence of chemical substance/The level of expressed mRNA in the absence of chemical substance (yeast gene YKL104C): 3.3
level of expressed mRNA in the presence/in the absence of chemical substance (yeast gene YKL148C): 0.6
The level of expressed mRNA in the presence of chemical substance/The level of expressed mRNA in the absence of chemical substance (yeast gene YKL152C): 1.8
level of expressed mRNA in the presence/in the absence of chemical substance (yeast gene YKL157W): 1.2
The level of expressed mRNA in the presence of chemical substance/The level of expressed mRNA in the absence of chemical substance (yeast gene YKL213C): 1.1
The level of expressed mRNA in the presence of chemical substance/The level of expressed mRNA in the absence of chemical substance (yeast gene YKL215C): 0.9
level of expressed mRNA in the presence/in the absence of chemical substance (yeast gene YKR034W): 1.7
level of expressed mRNA in the presence/in the absence of chemical substance (yeast gene YLR006C): 0.9
level of expressed mRNA in the presence/in the absence of chemical substance (yeast gene YLR044C): 2.2
level of expressed mRNA in the presence/in the absence of chemical substance (yeast gene YLR056W): 0.9
level of expressed mRNA in the presence/in the absence of chemical substance (yeast gene YLR058C): 1.5
level of expressed mRNA in the presence/in the absence of chemical substance (yeast gene YLR081W): 0.7
level of expressed mRNA in the presence/in the absence of chemical substance (yeast gene YLR089C): 1.7
The level of expressed mRNA in the presence of chemical substance/The level of expressed mRNA in the absence of chemical substance (yeast gene YLR180W): 2.5
level of expressed mRNA in the presence/in the absence of chemical substance (yeast gene YLR284C): 1.0
The level of expressed mRNA in the presence of chemical substance/The level of expressed mRNA in the absence of chemical substance (yeast gene YLR299W): 1.5
The level of expressed mRNA in the presence of chemical substance/The level of expressed mRNA in the absence of chemical substance (yeast gene YLR300W): 2.7
level of expressed mRNA in the presence/in the absence of chemical substance (yeast gene YLR304C): 1.6
The level of expressed mRNA in the presence of chemical substance/The level of expressed mRNA in the absence of chemical substance (yeast gene YLR307W): 3.9
The level of expressed mRNA in the presence of chemical substance/The level of expressed mRNA in the absence of chemical substance (yeast gene YLR348C): 2.4
level of expressed mRNA in the presence/in the absence of chemical substance (yeast gene YLR354C): 2.4
level of expressed mRNA in the presence/in the absence of chemical substance (yeast gene YLR372W): 0.7
level of expressed mRNA in the presence/in the absence of chemical substance (yeast gene YML022W): 0.6
The level of expressed mRNA in the presence of chemical substance/The level of expressed mRNA in the absence of chemical substance (yeast gene YML054C): 1.1
The level of expressed mRNA in the presence of chemical substance/The level of expressed mRNA in the absence of chemical substance (yeast gene YML070W): 0.9
level of expressed mRNA in the presence/in the absence of chemical substance (yeast gene YMR011W): 0.6
level of expressed mRNA in the presence/in the absence of chemical substance (yeast gene YMR015C): 1.2
level of expressed mRNA in the presence/in the absence of chemical substance (yeast gene YMR083W): 1.3
The level of expressed mRNA in the presence of chemical substance/The level of expressed mRNA in the absence of chemical substance (yeast gene YMR105C): 0.9
The level of expressed mRNA in the presence of chemical substance/The level of expressed mRNA in the absence of chemical substance (yeast gene YMR189W): 5.6
level of expressed mRNA in the presence/in the absence of chemical substance (yeast gene YMR205C): 0.9
level of expressed mRNA in the presence/in the absence of chemical substance (yeast gene YMR261C): 0.8
The level of expressed mRNA in the presence of chemical substance/The level of expressed mRNA in the absence of chemical substance (yeast gene YMR271C): 0.6
The level of expressed mRNA in the presence of chemical substance/The level of expressed mRNA in the absence of chemical substance (yeast gene YMR296C): 6.7
level of expressed mRNA in the presence/in the absence of chemical substance (yeast gene YMR323W): 37.3
The level of expressed mRNA in the presence of chemical substance/The level of expressed mRNA in the absence of chemical substance (yeast gene YNL012W): 1.6
level of expressed mRNA in the presence/in the absence of chemical substance (yeast gene YNL025C): 1.4
The level of expressed mRNA in the presence of chemical substance/The level of expressed mRNA in the absence of chemical substance (yeast gene YNL037C): 0.9
The level of expressed mRNA in the presence of chemical substance/The level of expressed mRNA in the absence of chemical substance (yeast gene YNL045W): 0.8
The level of expressed mRNA in the presence of chemical substance/The level of expressed mRNA in the absence of chemical substance (yeast gene YNL104C): 2.5
The level of expressed mRNA in the presence of chemical substance/The level of expressed mRNA in the absence of chemical substance (yeast gene YNL106C): 3.3
level of expressed mRNA in the presence/in the absence of chemical substance (yeast gene YNL192W): 2.1
The level of expressed mRNA in the presence of chemical substance/The level of expressed mRNA in the absence of chemical substance (yeast gene YNL231C): 0.9
The level of expressed mRNA in the presence of chemical substance/The level of expressed mRNA in the absence of chemical substance (yeast gene YNL331C): 2.3
The level of expressed mRNA in the presence of chemical substance/The level of expressed mRNA in the absence of chemical substance (yeast gene YNL332W): 5.4
The level of expressed mRNA in the presence of chemical substance/The level of expressed mRNA in the absence of chemical substance (yeast gene YNR002C): 1.0
The level of expressed mRNA in the presence of chemical substance/The level of expressed mRNA in the absence of chemical substance (yeast gene YNR019W): 1.6
The level of expressed mRNA in the presence of chemical substance/The level of expressed mRNA in the absence of chemical substance (yeast gene YNR033W): 1.3
The level of expressed mRNA in the presence of chemical substance/The level of expressed mRNA in the absence of chemical substance (yeast gene YNR059W): 1.0
The level of expressed mRNA in the presence of chemical substance/The level of expressed mRNA in the absence of chemical substance (yeast gene YOL058W): 2.7
level of expressed mRNA in the presence/in the absence of chemical substance (yeast gene YOL086C): 1.6
level of expressed mRNA in the presence/in the absence of chemical substance (yeast gene YOL108C): 1.5
level of expressed mRNA in the presence/in the absence of chemical substance (yeast gene YOL116W): 0.7
The level of expressed mRNA in the presence of chemical substance/The level of expressed mRNA in the absence of chemical substance (yeast gene YOL126C): 1.4
The level of expressed mRNA in the presence of chemical substance/The level of expressed mRNA in the absence of chemical substance (yeast gene YOL143C): 1.0
The level of expressed mRNA in the presence of chemical substance/The level of expressed mRNA in the absence of chemical substance (yeast gene YOL153C): 1.2
level of expressed mRNA in the presence/in the absence of chemical substance (yeast gene YOL156W): 1.9
level of expressed mRNA in the presence/in the absence of chemical substance (yeast gene YOR002W): 1.5
level of expressed mRNA in the presence/in the absence of chemical substance (yeast gene YOR085W): 1.8
level of expressed mRNA in the presence/in the absence of chemical substance (yeast gene YOR103C): 1.4
level of expressed mRNA in the presence/in the absence of chemical substance (yeast gene YOR108W): 0.7
level of expressed mRNA in the presence/in the absence of chemical substance (yeast gene YOR128C): 1.6
The level of expressed mRNA in the presence of chemical substance/The level of expressed mRNA in the absence of chemical substance (yeast gene YOR130C): 1.0
The level of expressed mRNA in the presence of chemical substance/The level of expressed mRNA in the absence of chemical substance (yeast gene YOR136W): 1.2
level of expressed mRNA in the presence/in the absence of chemical substance (yeast gene YOR142W): 1.1
level of expressed mRNA in the presence/in the absence of chemical substance (yeast gene YOR176W): 0.8
level of expressed mRNA in the presence/in the absence of chemical substance (yeast gene YOR178C): 1.1
level of expressed mRNA in the presence/in the absence of chemical substance (yeast gene YOR251C): 0.6
The level of expressed mRNA in the presence of chemical substance/The level of expressed mRNA in the absence of chemical substance (yeast gene YOR336W): 0.6
level of expressed mRNA in the presence/in the absence of chemical substance (yeast gene YOR348C): 1.6
The level of expressed mRNA in the presence of chemical substance/The level of expressed mRNA in the absence of chemical substance (yeast gene YPL017C): 1.0
level of expressed mRNA in the presence/in the absence of chemical substance (yeast gene YPL028W): 0.6
level of expressed mRNA in the presence/in the absence of chemical substance (yeast gene YPL057C): 1.1
level of expressed mRNA in the presence/in the absence of chemical substance (yeast gene YPL135W): 1.5
level of expressed mRNA in the presence/in the absence of chemical substance (yeast gene YPL148C): 0.6
level of expressed mRNA in the presence/in the absence of chemical substance (yeast gene YPR113W): 1.0
level of expressed mRNA in the presence/in the absence of chemical substance (yeast gene YPR165W): 0.9
The level of expressed mRNA in the presence of chemical substance/The level of expressed mRNA in the absence of chemical substance (yeast gene YPR167C): 0.9
level of expressed mRNA in the presence/in the absence of chemical substance (yeast gene YPR183W): 0.9
